Data published in patent publication US20200361895A1, “NOVEL SULFONAMIDE CARBOXAMIDE COMPOUNDS” (Inflazome Limited, priority 2017, published 2020).
Structures can show the parent of a compound that is named as a salt.

Molecular target: NLRP3 (Homo sapiens, UniProt Q96P20)
Assay: THP-1 cells pyroptosis assay (LPS + nigericin, resazurin readout; THP IC50)
Type: cell-based
Design: Seed THP-1 cells (25,000 cells/well) containing 1.0 μg/ml LPS in 40 μl of RPMI medium; host or cells: THP-1 cells
Method: THP-1 cells (ATCC #TIB-202) were grown in RPMI containing L-glutamine (Gibco #11835) supplemented with 1 mM sodium pyruvate (Sigma #S8636) and penicillin (100 units/ml)/streptomycin (0.1 mg/ml) (Sigma #P4333) in 10% Fetal Bovine Serum (FBS) (Sigma #F0804). The cells were routinely passaged and grown to confluency (˜10^6 cells/ml). On the day of the experiment, THP-1 cells were harvested and resuspended into RPMI medium (without FBS). The cells were then counted and viability (>90%) checked by Trypan blue (Sigma #T8154). Appropriate dilutions were made to give a concentration of 625,000 cells/ml. To this diluted cell solution was added LPS (Sigma #L4524) to give a 1 μg/ml Final Assay Concentration (FAC). 40 μl of the final preparation was aliquoted into each well of a 96-well plate. The plate thus prepared was used for compound screening.
The following method step-by-step assay was followed for compound screening. • 1. Seed THP-1 cells (25,000 cells/well) containing 1.0 μg/ml LPS in 40 μl of RPMI medium (without FBS) in 96-well, black walled, clear bottom cell culture plates coated with poly-D-lysine (VWR #734-0317) • 2. Add 5 μcompound (8 points half-log dilution, with 10 μM top dose) or vehicle (DMSO 0.1% FAC) to the appropriate wells • 3. Incubate for 3 hrs at 37° C. and 5% CO2 • 4. Add 5 μnigericin (Sigma #N7143) (FAC 5 μM) to all wells • 5. Incubate for 1 hr at 37° C. and 5% CO2 • 6. At the end of the incubation period, spin plates at 300×g for 3 mins and remove supernatant • 7. Then add 50 μl of resazurin (Sigma #R7017) (FAC 100 μM resazurin in RPMI medium without FBS) and incubate plates for a further 1-2 hrs at 37° C. and 5% CO2 • 8. Plates were read in an Envision reader at Ex 560 nm and Em 590 nm • 9. IC50 data is fitted to a non-linear regression equation (log inhibitor vs response-variable slope 4-parameters)

NLRP3, sequence (Q96P20 whole entry): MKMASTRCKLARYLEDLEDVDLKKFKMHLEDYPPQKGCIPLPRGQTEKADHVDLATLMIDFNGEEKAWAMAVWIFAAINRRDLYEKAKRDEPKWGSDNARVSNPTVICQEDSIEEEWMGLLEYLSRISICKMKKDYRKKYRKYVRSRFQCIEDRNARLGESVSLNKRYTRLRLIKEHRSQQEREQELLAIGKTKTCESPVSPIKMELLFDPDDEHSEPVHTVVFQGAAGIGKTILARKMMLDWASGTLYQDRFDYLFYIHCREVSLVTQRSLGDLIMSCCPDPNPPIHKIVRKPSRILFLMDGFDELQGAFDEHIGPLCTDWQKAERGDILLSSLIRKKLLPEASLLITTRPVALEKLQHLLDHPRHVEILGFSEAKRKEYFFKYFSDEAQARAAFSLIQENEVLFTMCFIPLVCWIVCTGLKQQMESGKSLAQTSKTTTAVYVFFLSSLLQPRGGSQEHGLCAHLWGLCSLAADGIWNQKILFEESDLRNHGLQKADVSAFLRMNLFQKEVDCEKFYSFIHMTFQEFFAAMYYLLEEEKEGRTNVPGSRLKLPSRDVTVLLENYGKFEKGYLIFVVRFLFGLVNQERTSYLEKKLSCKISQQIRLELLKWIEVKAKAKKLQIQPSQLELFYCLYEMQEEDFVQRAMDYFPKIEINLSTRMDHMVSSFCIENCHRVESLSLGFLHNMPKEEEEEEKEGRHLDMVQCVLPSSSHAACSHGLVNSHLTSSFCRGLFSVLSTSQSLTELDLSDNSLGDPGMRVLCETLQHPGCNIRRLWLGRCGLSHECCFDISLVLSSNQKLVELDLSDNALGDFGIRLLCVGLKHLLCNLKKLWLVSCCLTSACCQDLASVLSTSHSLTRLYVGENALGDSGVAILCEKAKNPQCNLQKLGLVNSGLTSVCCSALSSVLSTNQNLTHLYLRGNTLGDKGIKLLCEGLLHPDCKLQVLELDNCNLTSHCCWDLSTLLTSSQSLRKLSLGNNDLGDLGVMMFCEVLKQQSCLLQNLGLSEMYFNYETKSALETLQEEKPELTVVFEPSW

| IC50 [µM] | SMILES |
| --- | --- |
| ≤ 10 | CC(C)c1cc(F)cc(-c2ccnc(C#N)c2)c1NC(=O)NS(=O)(=O)C1CN(C(C)C)C1 [Example 74, N-((2-(2-Cyanopyridin-4-yl)-4-fluoro-6-isopropylphenyl)carbamoyl)-1-isopropylazetidine-3-sulfonamide] |
| ≤ 0.5 | COc1cc(-c2cc(F)cc(C(C)C)c2NC(=O)NS(=O)(=O)C2CN(C(C)C)C2)ccn1 [Example 75, N-((4-Fluoro-2-isopropyl-6-(2-methoxypyridin-4-yl)phenyl)carbamoyl)-1-isopropylazetidine-3-sulfonamide] |
| ≤ 10 | CC(C)c1cc(F)cc(-c2ccnc(C#N)c2)c1NC(=O)NS(=O)(=O)C1CN(C2CCC2)C1 [Example 78, N-((2-(2-Cyanopyridin-4-yl)-4-fluoro-6-isopropylphenyl)carbamoyl)-1-cyclobutylazetidine-3-sulfonamide] |
| ≤ 0.5 | COc1cc(-c2cc(F)cc(C(C)C)c2NC(=O)NS(=O)(=O)C2CN(C3CCC3)C2)ccn1 [Example 79, 1-Cyclobutyl-N-((4-fluoro-2-isopropyl-6-(2-methoxypyridin-4-yl)phenyl)carbamoyl)azetidine-3-sulfonamide] |
| ≤ 0.5 | COc1cc(-c2ccc3c(c2NC(=O)NS(=O)(=O)C2CN(C4CCC4)C2)CCC3)ccn1 [Example 80, 1-Cyclobutyl-N-((5-(2-methoxypyridin-4-yl)-2,3-dihydro-1H-inden-4-yl)carbamoyl)azetidine-3-sulfonamide] |
| ≤ 10 | CCN1CC(S(=O)(=O)NC(=O)Nc2c(-c3ccnc(C#N)c3)cc(F)cc2C(C)C)C1 [Example 82, N-((2-(2-Cyanopyridin-4-yl)-4-fluoro-6-isopropylphenyl)carbamoyl)-1-ethylazetidine-3-sulfonamide] |
| ≤ 1 | CCN1CC(S(=O)(=O)NC(=O)Nc2c(-c3ccncc3)cc(F)c3c2CCC3)C1 [Example 85, 1-Ethyl-N-((7-fluoro-5(pyridin-4-yl)-2,3-dihydro-1H-inden-4-yl)carbamoyl)azetidine-3-sulfonamide] |
| ≤ 10 | CC(C)c1cc(F)cc(-c2ccnc(C#N)c2)c1NC(=O)NS(=O)(=O)C1CN(Cc2cccnc2)C1 [Example 86, N-((2-(2-Cyanopyridin-4-yl)-4-fluoro-6-isopropylphenyl)carbamoyl)-1-(pyridin-3-ylmethyl)azetidine-3-sulfonamide] |
| ≤ 1 | O=C(Nc1c(-c2ccncc2)cc(F)c2c1CCC2)NS(=O)(=O)C1CN(Cc2cccnc2)C1 [Example 88, N-((7-Fluoro-5-(pyridin-4-yl)-2,3-dihydro-1H-inden-4-yl)carbamoyl)-1-(pyridin-3-ylmethyl)azetidine-3-sulfonamide] |
| ≤ 0.5 | CC(C)c1cc(F)cc(-c2ccnc(C#N)c2)c1NC(=O)NS(=O)(=O)c1ccc(=O)n(C(C)C)c1 [Example 89, N-((2-(2-cyanopyridin-4-yl)-4-fluoro-6-isopropylphenyl)carbamoyl)-1-isopropyl-6-oxo-1,6-dihydropyridine-3-sulfonamide] |
| ≤ 0.5 | COc1cc(-c2cc(F)cc(C(C)C)c2NC(=O)NS(=O)(=O)c2ccc(=O)n(C(C)C)c2)ccn1 [Example 90, N-((4-Fluoro-2-isopropyl-6-(2-methoxypyridin-4-yl)phenyl)carbamoyl)-1-isopropyl-6-oxo-1,6-dihydropyridine-3-sulfonamide] |
| ≤ 10 | CC(C)c1cc(F)cc(-c2cccnc2)c1NC(=O)NS(=O)(=O)C1CCN(C(C)C)CC1 [Example 93, N-((4-Fluoro-2-isopropyl-6-(pyridin-3-yl)phenyl)carbamoyl)-1-isopropylpiperidine-4-sulfonamide] |
| ≤ 10 | CCN1CCC(S(=O)(=O)NC(=O)Nc2c(-c3ccnc(C#N)c3)ccc3c2CCC3)CC1 [Example 99, N-((5-(2-Cyanopyridin-4-yl)-2,3-dihydro-1H-inden-4-yl)carbamoyl)-1-ethylpiperidine-4-sulfonamide, potassium salt] |
| ≤ 5 | CCN1CCC(S(=O)(=O)NC(=O)Nc2c(-c3ccnc(OC)c3)cc(F)cc2C(C)C)CC1 [Example 100, 1-Ethyl-N-((4-fluoro-2-isopropyl-6-(2-methoxypyridin-4-yl)phenyl)carbamoyl)piperidine-4-sulfonamide, potassium salt] |
| ≤ 0.5 | CC(C)c1cc(F)cc(-c2ccnc(C#N)c2)c1NC(=O)NS(=O)(=O)c1cncc(N(C)C)n1 [Example 102, N-((2-(2-Cyanopyridin-4-yl)-4-fluoro-6-isopropylphenyl)carbamoyl)-6-(dimethylamino)pyrazine-2-sulfonamide] |
| ≤ 0.5 | COc1cc(-c2cc(F)cc(C(C)C)c2NC(=O)NS(=O)(=O)c2cnc(N(C)C)cn2)ccn1 [Example 107, 5-(Dimethylamino)-N-((4-fluoro-2-isopropyl-6-(2-methoxypyridin-4-yl)phenyl)carbamoyl)pyrazine-2-sulfonamide] |
| ≤ 10 | CC(C)c1cc(F)cc(-c2ccnc(C#N)c2)c1NC(=O)NS(=O)(=O)c1nccnc1C(F)F [Example 110, N-((2-(2-Cyanopyridin-4-yl)-4-fluoro-6-isopropylphenyl)carbamoyl)-3-(difluoromethyl)pyrazine-2-sulfonamide] |
| ≤ 5 | COc1cc(-c2cc(F)cc(C(C)C)c2NC(=O)NS(=O)(=O)c2nccnc2C(F)F)ccn1 [Example 111, 3-(Difluoromethyl)-N-((4-fluoro-2-isopropyl-6-(2-methoxypyridin-4-yl)phenyl)carbamoyl)pyrazine-2-sulfonamide] |
| ≤ 1 | COc1cc(-c2ccc3c(c2NC(=O)NS(=O)(=O)c2nccnc2C(F)F)CCC3)ccn1 [Example 112, 3-(Difluoromethyl)-N-((5-(2-methoxypyridin-4-yl)-2,3-dihydro-1H-inden-4-yl)carbamoyl)pyrazine-2-sulfonamide] |
| ≤ 5 | O=C(Nc1c(-c2ccncc2)cc(F)c2c1CCC2)NS(=O)(=O)c1nccnc1C(F)F [Example 113, 3-(Difluoromethyl)-N-((7-fluoro-5-(pyridin-4-yl)-2,3-dihydro-1H-inden-4-yl)carbamoyl)pyrazine-2-sulfonamide] |
| ≤ 0.5 | COc1cc(-c2cc(F)cc(C(C)C)c2NC(=O)NS(=O)(=O)c2nc(C)cc(C)n2)ccn1 [Example 115, N-((4-Fluoro-2-isopropyl-6-(2-methoxypyridin-4-yl)phenyl)carbamoyl)-4,6-dimethylpyrimidine-2-sulfonamide] |
| ≤ 10 | CC(C)c1cc(F)cc(-c2ccnc(C#N)c2)c1NC(=O)NS(=O)(=O)Cc1ccccc1 [Example 127, N-((2-(2-Cyanopyridin-4-yl)-4-fluoro-6-isopropylphenyl)carbamoyl)-1-phenylmethanesulfonamide] |
| ≤ 1 | COc1cc(-c2cc(F)cc(C(C)C)c2NC(=O)NS(=O)(=O)Cc2ccccc2)ccn1 [Example 128, N-((4-Fluoro-2-isopropyl-6-(2-methoxypyridin-4-yl)phenyl)carbamoyl)-1-phenylmethanesulfonamide] |
| ≤ 5 | COc1cc(-c2ccc3c(c2NC(=O)NS(=O)(=O)Cc2ccccc2)CCC3)ccn1 [Example 129, N-((5-(2-Methoxypyridin-4-yl)-2,3-dihydro-1H-inden-4-yl)carbamoyl)-1-phenylmethanesulfonamide] |

| SMILES | IC50 [µM] |
| --- | --- |
| CCN1CCC(S(=O)(=O)NC(=O)Nc2c(-c3ccnc(OC)c3)cc(F)c3c2CCC3)CC1 [Example 97, 1-Ethyl-N-((7-fluoro-5-(2-methoxypyridin-4-yl)-2,3-dihydro-1H-inden-4-yl)carbamoyl)piperidine-4-sulfonamide, potassium salt] | ≤ 5 |
